Species on record: Rattus norvegicus
Test: Open TG-GATES - Regimen: Daily Repeat
Type: toxicity, organism-based, Sprague-Dawley
Parameters: regimen Daily Repeat, gender Male, age 6 weeks
Conditions: in vivo, po, route gavage; for APTT / Bas / Eos / Hb / Ht / Lym / MCH / MCHC / MCV / Mono / PT / Plat / RBC / Ret / WBC / Neu: tissue Blood; for KIDNEY_L / KIDNEY_R / KIDNEY_TOTAL: tissue Kidney; for LIVER: tissue Liver; for ALT / AST / BUN / CRE / Ca / DBIL / GLC / IP / K / LDH / Na / PL / RALB / TBIL / TC / TP / gamma-GTP / TG / ALP: tissue Plasma
[1] = 0 mg/kg, 72 h, dose level Control, time 3 day
[2] = 0 mg/kg, […], dose level Control, time 7 day
[3] = 0 mg/kg, […], dose level Control, time 14 day
[4] = 0 mg/kg, […], dose level Control, time 28 day
[5] = 100 mg/kg, 72 h, dose level Low, time 3 day
[6] = 100 mg/kg, […], dose level Low, time 7 day
[7] = 100 mg/kg, […], dose level Low, time 14 day
[8] = 100 mg/kg, […], dose level Low, time 28 day
[9] = 300 mg/kg, 72 h, dose level Middle, time 3 day

## C[C@H](CS)C(=O)N1CCC[C@H]1C(=O)O [CAPTOPRIL]
[1]
  TERMINAL_BW: 245.5 g
  APTT: 16.1 s
  Bas: 0%
  Eos: 1.2%
  Hb: 13.4 g/dL
  Ht: 41%
  Lym: 82.8%
  MCH: 21.5 pg
  MCHC: 32.7%
  MCV: 65.6 fL
  Mono: 5.8%
  PT: 11.3 s
  Plat: 117.3 x10_4/uL
  RBC: 625 x10_4/ul
  Ret: 7.6%
  WBC: 119.1 x10_2/uL
  KIDNEY_L: 1.1 g
  KIDNEY_R: 1.1 g
  KIDNEY_TOTAL: 2.2 g
  LIVER: 11.9 g
  ALT: 40.4 IU/L
  AST: 64.8 IU/L
  BUN: 17.6 mg/dL
  CRE: 0.5 mg/dL
  Ca: 11.3 mg/dL
  DBIL: 0.016 mg/dL
  GLC: 197.6 mg/dL
  IP: 8.9 mg/dL
  K: 4.8 meq/L
  LDH: 86.2 IU/L
  Na: 139 meq/L
  PL: 142.4 mg/dL
  RALB: 3.8 g/dL
  TBIL: 0.4 mg/dL
  TC: 70.6 mg/dL
  TP: 5.7 g/dL
  gamma-GTP: 1.2 IU/L
[2]
  TERMINAL_BW: 274 g
  APTT: 16.6 s
  Bas: 0%
  Eos: 0.8%
  Hb: 13.8 g/dL
  Ht: 41.7%
  Lym: 83%
  MCH: 21.1 pg
  MCHC: 33.1%
  MCV: 63.9 fL
  Mono: 4%
  Neu: 12.4%
  Plat: 113.7 x10_4/uL
  RBC: 653.4 x10_4/ul
  Ret: 6.1%
  WBC: 144.9 x10_2/uL
  KIDNEY_L: 1.1 g
  KIDNEY_R: 1.1 g
  KIDNEY_TOTAL: 2.3 g
  LIVER: 13 g
  ALT: 37.8 IU/L
  AST: 62 IU/L
  BUN: 18.8 mg/dL
  CRE: 0.6 mg/dL
  DBIL: 0.002 mg/dL
  GLC: 198 mg/dL
  IP: 8.1 mg/dL
  K: 4.9 meq/L
  LDH: 72.4 IU/L
  Na: 141.4 meq/L
  PL: 132.2 mg/dL
  RALB: 3.8 g/dL
  TBIL: 0.3 mg/dL
  TC: 65.2 mg/dL
  TG: 79.8 mg/dL
  TP: 5.8 g/dL
  gamma-GTP: 1.2 IU/L
[3]
  TERMINAL_BW: 333.4 g
  APTT: 16.9 s
  Bas: 0%
  Eos: 1%
  Hb: 14.3 g/dL
  Ht: 43.1%
  Lym: 80.8%
  MCH: 20.5 pg
  MCHC: 33.1%
  MCV: 62.1 fL
  Mono: 6%
  Neu: 12.4%
  PT: 11.4 s
  Plat: 112.4 x10_4/uL
  RBC: 694.8 x10_4/ul
  Ret: 4.1%
  WBC: 122.3 x10_2/uL
  KIDNEY_L: 1.3 g
  KIDNEY_R: 1.3 g
  KIDNEY_TOTAL: 2.6 g
  LIVER: 15.7 g
  ALP: 916.4 IU/L
  ALT: 32.6 IU/L
  AST: 60.2 IU/L
  BUN: 17.8 mg/dL
  CRE: 0.5 mg/dL
  DBIL: 0 mg/dL
  GLC: 202.6 mg/dL
  IP: 8.1 mg/dL
  K: 4.5 meq/L
  LDH: 76.8 IU/L
  Na: 139.4 meq/L
  PL: 169.6 mg/dL
  RALB: 3.9 g/dL
  TBIL: 0.3 mg/dL
  TC: 85.4 mg/dL
  TG: 152 mg/dL
  TP: 6 g/dL
  gamma-GTP: 1.2 IU/L
[4]
  TERMINAL_BW: 402.1 g
  APTT: 16.7 s
  Bas: 0%
  Eos: 1%
  Hb: 14.5 g/dL
  Ht: 43.7%
  Lym: 86.8%
  MCH: 19 pg
  MCHC: 33.1%
  MCV: 57.4 fL
  Mono: 4.4%
  Neu: 7.8%
  PT: 11.9 s
  RBC: 761.8 x10_4/ul
  Ret: 2.5%
  WBC: 154.2 x10_2/uL
  KIDNEY_L: 1.4 g
  KIDNEY_R: 1.4 g
  KIDNEY_TOTAL: 2.9 g
  LIVER: 17 g
  ALP: 633 IU/L
  ALT: 31.4 IU/L
  AST: 58 IU/L
  BUN: 20.4 mg/dL
  CRE: 0.6 mg/dL
  DBIL: 0.026 mg/dL
  GLC: 213.6 mg/dL
  IP: 7.7 mg/dL
  K: 4.3 meq/L
  LDH: 110.2 IU/L
  Na: 139.8 meq/L
  PL: 150 mg/dL
  RALB: 3.9 g/dL
  TBIL: 0.3 mg/dL
  TC: 69.2 mg/dL
  TG: 142.4 mg/dL
  TP: 6.1 g/dL
  gamma-GTP: 0.6 IU/L
[5]
  TERMINAL_BW: 236.5 g
  APTT: 16.5 s
  Bas: 0%
  Eos: 1%
  Hb: 13.6 g/dL
  Ht: 41.2%
  Lym: 79.6%
  MCH: 21.6 pg
  MCHC: 33.1%
  MCV: 65.3 fL
  Mono: 8.4%
  Neu: 11.4%
  PT: 11.2 s
  Plat: 120 x10_4/uL
  RBC: 632.2 x10_4/ul
  Ret: 7.1%
  WBC: 121.4 x10_2/uL
  KIDNEY_L: 0.9 g
  KIDNEY_R: 1 g
  KIDNEY_TOTAL: 1.9 g
  LIVER: 11.7 g
  ALP: 857.2 IU/L
  ALT: 40.4 IU/L
  AST: 67 IU/L
  BUN: 21.2 mg/dL
  CRE: 0.5 mg/dL
  Ca: 11.4 mg/dL
  DBIL: 0.01 mg/dL
  GLC: 193.6 mg/dL
  IP: 8.4 mg/dL
  K: 5 meq/L
  LDH: 116.8 IU/L
  Na: 138.4 meq/L
  PL: 150.6 mg/dL
  RALB: 4.2 g/dL
  TBIL: 0.3 mg/dL
  TC: 81 mg/dL
  TP: 6.1 g/dL
  gamma-GTP: 1.4 IU/L
[6]
  TERMINAL_BW: 261.5 g
  APTT: 15.6 s
  Bas: 0%
  Eos: 0.6%
  Hb: 13.8 g/dL
  Ht: 41.4%
  Lym: 84%
  MCH: 20.7 pg
  MCHC: 33.2%
  MCV: 62.4 fL
  Mono: 4.8%
  Plat: 134.3 x10_4/uL
  RBC: 664.8 x10_4/ul
  Ret: 4.9%
  WBC: 139.3 x10_2/uL
  KIDNEY_L: 1.1 g
  KIDNEY_R: 1.2 g
  KIDNEY_TOTAL: 2.3 g
  LIVER: 12.3 g
  ALT: 40.8 IU/L
  AST: 67.6 IU/L
  BUN: 20 mg/dL
  CRE: 0.5 mg/dL
  DBIL: 0.002 mg/dL
  GLC: 203.8 mg/dL
  IP: 8.2 mg/dL
  K: 5.1 meq/L
  LDH: 77 IU/L
  Na: 139.2 meq/L
  PL: 144.2 mg/dL
  RALB: 4 g/dL
  TBIL: 0.3 mg/dL
  TC: 74.6 mg/dL
  TG: 83.6 mg/dL
  TP: 6 g/dL
  gamma-GTP: 1.8 IU/L
[7]
  TERMINAL_BW: 305.1 g
  APTT: 16.9 s
  Bas: 0%
  Eos: 1.2%
  Hb: 14.2 g/dL
  Ht: 42.9%
  Lym: 77%
  MCH: 19.9 pg
  MCHC: 33.2%
  MCV: 60 fL
  Mono: 7.6%
  Neu: 14.4%
  PT: 11.6 s
  RBC: 717 x10_4/ul
  Ret: 3.5%
  WBC: 93.7 x10_2/uL
  KIDNEY_L: 1.2 g
  KIDNEY_R: 1.3 g
  KIDNEY_TOTAL: 2.5 g
  LIVER: 13.8 g
  ALP: 862.6 IU/L
  ALT: 32.8 IU/L
  AST: 61.2 IU/L
  BUN: 22.2 mg/dL
  CRE: 0.5 mg/dL
  DBIL: 0 mg/dL
  GLC: 197.6 mg/dL
  IP: 7.8 mg/dL
  K: 4.8 meq/L
  LDH: 85 IU/L
  Na: 138.2 meq/L
  PL: 151.6 mg/dL
  RALB: 4.1 g/dL
  TBIL: 0.3 mg/dL
  TC: 72.6 mg/dL
  TP: 6.1 g/dL
  gamma-GTP: 0.8 IU/L
[8]
  TERMINAL_BW: 346.2 g
  APTT: 15.9 s
  Bas: 0%
  Eos: 1.2%
  Hb: 14.8 g/dL
  Ht: 44.8%
  Lym: 83.4%
  MCH: 18.8 pg
  MCHC: 33.1%
  MCV: 56.6 fL
  Mono: 5.4%
  PT: 11.7 s
  RBC: 790.8 x10_4/ul
  Ret: 2.4%
  WBC: 131.2 x10_2/uL
  KIDNEY_L: 1.4 g
  KIDNEY_R: 1.4 g
  KIDNEY_TOTAL: 2.8 g
  LIVER: 13.8 g
  ALP: 701.4 IU/L
  ALT: 36.6 IU/L
  AST: 65.8 IU/L
  BUN: 22.6 mg/dL
  CRE: 0.5 mg/dL
  DBIL: 0.02 mg/dL
  GLC: 194 mg/dL
  IP: 7.5 mg/dL
  K: 4.9 meq/L
  LDH: 116.8 IU/L
  Na: 137.2 meq/L
  PL: 148.4 mg/dL
  RALB: 4.1 g/dL
  TBIL: 0.3 mg/dL
  TC: 72.8 mg/dL
  TG: 114.6 mg/dL
  TP: 6.2 g/dL
  gamma-GTP: 0.8 IU/L
[9]
  TERMINAL_BW: 239.8 g
  APTT: 16.2 s
  Bas: 0%

Reference: ChEMBL document CHEMBL3885861, “Open TG-GATES”
